From PubChem BioAssay AID1918945 (Molecular Pharmacology Branch, DTP, NCI, 2023)
Values joined by “and” are separate entries in the source; they are usually repeats but may differ in a detail not shown here. Equal values may be shown once.

Tested on: 883617-216-R-J1-PDC complex spheroid viability
Assay: Anticancer human tumor 883617-216-R-J1-PDC patient-derived bladder carcinoma cell line growth inhibition
Details: for viability, T/C: stronger effect = lower value
Summary of the method: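 Multicellular complex spheroids of tumor cells with human endothelial cells (HUVEC) and mesenchymal stem cells; the LSD1 inhibitor iadademstat was combined with standard-of-care or investigational agents. Top concentration at or near clinical Cmax, half-log dilutions; final DMSO ≤0.25%.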

[1] = curve of first compound, second compound 0.1 µM
[2] = curve of first compound, second compound 0.316 µM
[3] = curve of first compound, second compound 1 µM
[4] = curve of first compound, second compound 3.16 µM
[5] = curve of first compound, second compound 10 µM
[6] = second compound 0.1 µM, first compound 0.00316 µM
[7] = second compound 0.1 µM, first compound 0.01 µM
[8] = second compound 0.1 µM, first compound 0.0316 µM
[9] = second compound 0.1 µM, first compound 0.1 µM
[10] = second compound 0.316 µM, first compound 0.00316 µM
[11] = second compound 0.316 µM, first compound 0.01 µM
[12] = second compound 0.316 µM, first compound 0.0316 µM
[13] = second compound 0.316 µM, first compound 0.1 µM
[14] = second compound 1 µM, first compound 0.00316 µM
[15] = second compound 1 µM, first compound 0.01 µM
[16] = second compound 1 µM, first compound 0.0316 µM
[17] = second compound 1 µM, first compound 0.1 µM
[18] = second compound 3.16 µM, first compound 0.00316 µM
[19] = second compound 3.16 µM, first compound 0.01 µM
[20] = second compound 3.16 µM, first compound 0.0316 µM
[21] = second compound 3.16 µM, first compound 0.1 µM
[22] = second compound 10 µM, first compound 0.00316 µM
[23] = second compound 10 µM, first compound 0.01 µM
[24] = second compound 10 µM, first compound 0.0316 µM
[25] = second compound 10 µM, first compound 0.1 µM
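Note: exposure lasted seven days after three days of spheroid growth.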
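Throughout, for viability, T/C: 100% = DMSO vehicle control luminescence.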

Nc1ccn(C2OC(CO)C(O)C2(F)F)c(=O)n1 (configuration not stated)
viability, T/C (compound 0.000949 µM): 24.4% and 23% | viability, T/C (compound 0.003 µM): 20.5% and 20.8% | viability, T/C (compound 0.00949 µM): 21.2% and 23% | viability, T/C (compound 0.03 µM): 23.5% and 25.3% | viability, T/C (compound 0.0949 µM): 23.3% and 24.1% | viability, T/C (compound 0.3 µM): 21.9% and 23.4% | IC50 (curve of compound): < 0.949 nM

Cn1ncnc1C1c2n[nH]c(=O)c3cc(F)cc(c23)NC1c1ccc(F)cc1 (configuration not stated) + NC1CCC(NC2CC2c2ccccc2)CC1
IC50 [1]: > 100 nM | IC50 [2]: > 100 nM | IC50 [3]: > 100 nM | IC50 [4]: > 100 nM | IC50 [5]: > 100 nM | viability, T/C (second compound 0.1 µM, first compound 0.000316 µM): 110% | viability, T/C (second compound 0.1 µM, first compound 0.001 µM): 110% | viability, T/C [6]: 103% | viability, T/C [7]: 91.6% | viability, T/C [8]: 68.5% | viability, T/C [9]: 66.6% | viability, T/C (second compound 0.316 µM, first compound 0.000316 µM): 113% | viability, T/C (second compound 0.316 µM, first compound 0.001 µM): 111% | viability, T/C [10]: 97.6% | viability, T/C [11]: 89.7% | viability, T/C [12]: 72.7% | viability, T/C [13]: 60% | viability, T/C (second compound 1 µM, first compound 0.000316 µM): 112% | viability, T/C (second compound 1 µM, first compound 0.001 µM): 113% | viability, T/C [14]: 99.2% | viability, T/C [15]: 93.9% | viability, T/C [16]: 67.3% | viability, T/C [17]: 57.7% | viability, T/C (second compound 3.16 µM, first compound 0.000316 µM): 101% | viability, T/C (second compound 3.16 µM, first compound 0.001 µM): 102% | viability, T/C [18]: 99.2% | viability, T/C [19]: 85.2% | viability, T/C [20]: 69.2% | viability, T/C [21]: 69.7% | viability, T/C (second compound 10 µM, first compound 0.000316 µM): 107% | viability, T/C (second compound 10 µM, first compound 0.001 µM): 106% | viability, T/C [22]: 108% | viability, T/C [23]: 90.6% | viability, T/C [24]: 72.8% | viability, T/C [25]: 66.2%

CCc1c2c(nc3ccc(O)cc13)-c1cc3c(c(=O)n1C2)COC(=O)[C@]3(O)CC + NC1CC1c1ccc(-c2cccc(O)c2)cc1
IC50 [1]: < 0.949 nM | IC50 [2]: < 0.949 nM | IC50 [3]: < 0.949 nM | IC50 [4]: < 0.949 nM | IC50 [5]: < 0.949 nM | viability, T/C (second compound 0.1 µM, first compound 0.000949 µM): 25.1% | viability, T/C (second compound 0.1 µM, first compound 0.003 µM): 20.4% | viability, T/C (second compound 0.1 µM, first compound 0.00949 µM): 17.5% | viability, T/C (second compound 0.1 µM, first compound 0.03 µM): 14% | viability, T/C (second compound 0.1 µM, first compound 0.0949 µM): 0.36% | viability, T/C (second compound 0.1 µM, first compound 0.3 µM): 0.15% | viability, T/C (second compound 0.316 µM, first compound 0.000949 µM): 25.6% | viability, T/C (second compound 0.316 µM, first compound 0.003 µM): 21.7% | viability, T/C (second compound 0.316 µM, first compound 0.00949 µM): 19.9% | viability, T/C (second compound 0.316 µM, first compound 0.03 µM): 13% | viability, T/C (second compound 0.316 µM, first compound 0.0949 µM): 0.27% | viability, T/C (second compound 0.316 µM, first compound 0.3 µM): 0.12% | viability, T/C (second compound 1 µM, first compound 0.000949 µM): 25.8% | viability, T/C (second compound 1 µM, first compound 0.003 µM): 21.6% | viability, T/C (second compound 1 µM, first compound 0.00949 µM): 24.4% | viability, T/C (second compound 1 µM, first compound 0.03 µM): 14.2% | viability, T/C (second compound 1 µM, first compound 0.0949 µM): 0.38% | viability, T/C (second compound 1 µM, first compound 0.3 µM): 0.88% | viability, T/C (second compound 3.16 µM, first compound 0.000949 µM): 21.6% | viability, T/C (second compound 3.16 µM, first compound 0.003 µM): 18.4% | viability, T/C (second compound 3.16 µM, first compound 0.00949 µM): 19.6% | viability, T/C (second compound 3.16 µM, first compound 0.03 µM): 14.4% | viability, T/C (second compound 3.16 µM, first compound 0.0949 µM): 0.18% | viability, T/C (second compound 3.16 µM, first compound 0.3 µM): 0.15% | viability, T/C (second compound 10 µM, first compound 0.000949 µM): 22.1% | viability, T/C (second compound 10 µM, first compound 0.003 µM): 19.7% | viability, T/C (second compound 10 µM, first compound 0.00949 µM): 17.4% | viability, T/C (second compound 10 µM, first compound 0.03 µM): 13.8% | viability, T/C (second compound 10 µM, first compound 0.0949 µM): 0.25% | viability, T/C (second compound 10 µM, first compound 0.3 µM): 0.21%

COc1cc(Nc2ncc3c(n2)-c2ccc(Cl)cc2C(c2c(F)cccc2OC)=NC3)ccc1C(=O)O + NC1CCC(NC2CC2c2ccccc2)CC1
IC50 [1]: > 1000 nM | IC50 [2]: 262 nM | IC50 [3]: 322 nM | IC50 [4]: > 1000 nM | IC50 [5]: > 1000 nM | viability, T/C [6]: 96.2% | viability, T/C [7]: 77.3% | viability, T/C [8]: 61.3% | viability, T/C [9]: 53.3% | viability, T/C (second compound 0.1 µM, first compound 0.316 µM): 51.5% | viability, T/C (second compound 0.1 µM, first compound 1 µM): 50.7% | viability, T/C [10]: 98.6% | viability, T/C [11]: 81.1% | viability, T/C [12]: 58.7% | viability, T/C [13]: 53.3% | viability, T/C (second compound 0.316 µM, first compound 0.316 µM): 48.8% | viability, T/C (second compound 0.316 µM, first compound 1 µM): 49.1% | viability, T/C [14]: 94.8% | viability, T/C [15]: 75.7% | viability, T/C [16]: 54.6% | viability, T/C [17]: 49.4% | viability, T/C (second compound 1 µM, first compound 0.316 µM): 48.8% | viability, T/C (second compound 1 µM, first compound 1 µM): 53% | viability, T/C [18]: 96.1% | viability, T/C [19]: 83.7% | viability, T/C [20]: 58.8% | viability, T/C [21]: 50.8% | viability, T/C (second compound 3.16 µM, first compound 0.316 µM): 55.5% | viability, T/C (second compound 3.16 µM, first compound 1 µM): 56.2% | viability, T/C [22]: 93.5% | viability, T/C [23]: 75.5% | viability, T/C [24]: 65.1% | viability, T/C [25]: 58.1% | viability, T/C (second compound 10 µM, first compound 0.316 µM): 54.7% | viability, T/C (second compound 10 µM, first compound 1 µM): 51.1%
